One data set deals with T1, AKT3 (Homo sapiens, UniProt Q9Y243).
T1 construct: purchased life technology
As to the kind of experiment: AKT enzyme activity test (LANCE TR-FRET), AKT3. Format: biochemical. From the text:
(§1) AKT, also known as protein kinase B (PKB), is a serine/threonine specific protein kinase, mainly including AKT1, AKT2 and AKT3. The AKT signaling pathway plays an important role in various cellular processes such as glucose metabolism, apoptosis, cell proliferation transcription and cell migration. This study intends to analyze the inhibitory effect of the crystal form of the compound of formula (I) on the kinase activity of AKT family members.
(§2) In this experiment, the homogeneous time-resolved fluorescence […] energy transfer (LANCE TR-FRET®) method was used. The enzymes, biotinylated polypeptide substrates and the compound to be tested were mixed in the detection plate, and ATP was added to initiate the reaction and the mixture was incubated. After the reaction, EDTA was added to terminate the reaction, and Eu-labeled antibody was added at the same time to carry out the reaction and the reaction was detected. The detection plate was analyzed using Envision from PE Company, and the analysis mode was TR-FRET, the data were expressed by fluorescence signals at 665 nm and 615 nm, respectively.
(§3) Compound preparation: the test compound and the reference compound were diluted with 100% DMSO, the initial concentrations of the compounds were 10 μM, and the compounds were 3-fold gradient diluted into 10 concentrations. […]
Background: TR-FRET usually uses a lanthanide donor and a delayed reading to cut background.

For the next data set, the target named is T2, AKT2 (Homo sapiens, UniProt P31751).
T2 construct: purchased life technology
T2 sequence (P31751 whole entry): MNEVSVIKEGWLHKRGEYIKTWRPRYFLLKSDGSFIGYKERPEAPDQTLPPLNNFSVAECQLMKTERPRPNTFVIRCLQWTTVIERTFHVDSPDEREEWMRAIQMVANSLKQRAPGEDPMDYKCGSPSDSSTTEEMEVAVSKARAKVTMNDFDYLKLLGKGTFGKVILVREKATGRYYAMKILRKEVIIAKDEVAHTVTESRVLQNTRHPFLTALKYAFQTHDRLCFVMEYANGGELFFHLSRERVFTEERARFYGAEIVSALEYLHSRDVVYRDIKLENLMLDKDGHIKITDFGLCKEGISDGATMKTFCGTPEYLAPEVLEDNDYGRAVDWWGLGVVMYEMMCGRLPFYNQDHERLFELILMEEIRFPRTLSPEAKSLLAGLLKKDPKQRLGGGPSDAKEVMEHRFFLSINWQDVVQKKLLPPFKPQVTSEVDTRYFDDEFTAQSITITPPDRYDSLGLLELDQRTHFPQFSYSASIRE
Nature of the data set: AKT enzyme activity test (LANCE TR-FRET), AKT2. Format: biochemical.
Excerpt: as §1, §2, §3

Data set [1] in a line: Solubility test of the crystal form in different solvents. Format: physicochemical. The following applies: 25±2° C.; for solubility at 30 min: 25 °C, thermodynamic from solid, read-out: Solubility classification. As to the method: 10 mg of the crystal form of the compound of formula (I) was weighed accurately and placed in a glass bottle, 1 mL solvent was added thereto, the solution was shaken vigorously for 30 seconds every 5 minutes under 25±2° C., the dissolution phenomenon within 30 minutes was observed. The corresponding data was recorded. 1 mg of the insoluble sample in step 2.1 was weighed accurately and placed in a glass bottle, a suitable solvent was added thereto, the solution was shaken vigorously for 30 seconds every 5 minutes under 25±2° C., the dissolution phenomenon within 30 minutes was observed. The corresponding data was recorded. [table]

In general, IC50 refers to the midpoint of a concentration-inhibition curve. As usually defined, the solubility is the dissolved amount per volume that the medium holds.

Molecules are shown by their SMILES. Like-named read-outs stand apart in the source and are kept apart here.

T1 sequence (Q9Y243 whole entry): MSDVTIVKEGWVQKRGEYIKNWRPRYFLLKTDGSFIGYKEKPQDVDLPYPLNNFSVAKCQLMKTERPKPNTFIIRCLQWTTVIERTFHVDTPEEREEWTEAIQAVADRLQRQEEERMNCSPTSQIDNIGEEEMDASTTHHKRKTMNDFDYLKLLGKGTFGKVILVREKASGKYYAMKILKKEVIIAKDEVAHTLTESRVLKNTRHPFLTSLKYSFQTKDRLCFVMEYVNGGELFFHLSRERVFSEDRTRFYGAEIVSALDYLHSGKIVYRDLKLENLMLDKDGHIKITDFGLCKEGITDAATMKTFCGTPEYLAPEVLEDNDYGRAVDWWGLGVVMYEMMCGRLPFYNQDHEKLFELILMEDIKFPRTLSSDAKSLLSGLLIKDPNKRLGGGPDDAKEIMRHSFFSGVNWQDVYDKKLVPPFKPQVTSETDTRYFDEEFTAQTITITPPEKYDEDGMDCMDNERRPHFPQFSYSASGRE

On to `Cc1cnn2c1-c1cc(C(=O)N[C@H](CN)Cc3cccc(F)c3)sc1CCC2.O=C(O)/C=C\C(=O)O`, for which the “inhibition effect against the activity of AKT3 kinase” value against AKT3 is on record as “strong inhibition effect”. For the same molecule, the IC50 came out at 90.4 nM on AKT3 (Akt3 2 nM, ATP 160 μM, read-out: IC50 of inhibition on kinase activity, AKT3) and 50.3 nM on AKT2 (Akt2 2 nM, ATP 360 μM, read-out: IC50 of inhibition on kinase activity, AKT2). Further, the “inhibition effect against the activity of AKT2 kinase” value against AKT2 was “strong inhibition effect”. Besides, the Solubility classification entry in data set [1] (0.1N HCl) is reported as “barely soluble or insoluble”; in data set [1] (0.1N NaOH), “barely soluble or insoluble”; in data set [1] (Acetonitrile), “barely soluble or insoluble”; in data set [1] (Dimethyl sulfoxide), “quite soluble”; in data set [1] (Methanol), “slightly soluble”; in data set [1] (N-Methylpyrrolidone), “quite soluble”. Moreover, the Solubility classification result in data set [1] (Water) was “barely soluble or insoluble”. Also, the solubility at 30 min is less than 0.1 mg/mL in data set [1] (aqueous buffer, 0.1N NaOH); less than 0.1 mg/mL in data set [1] (organic solvent or mixture, Acetonitrile); 100 to 1000 mg/mL in data set [1] (organic solvent or mixture, Dimethyl sulfoxide); 1 to 10 mg/mL in data set [1] (organic solvent or mixture, Methanol); 100 to 1000 mg/mL in data set [1] (organic solvent or mixture, N-Methylpyrrolidone); 0.1 to 1 mg/mL in data set [1] (simulated gastric fluid, 0.1N HCl). Also, the solubility at 30 min in data set [1] (Water) is less than 0.1 mg/mL.
